Assay results from patent US9550751B2, “Processes for the preparation of pesticidal compounds” (Dow AgroSciences LLC, priority 2013, dated 2017).
Counter-ions that a name gives are not always drawn. Like-named read-outs stand apart in the source and are kept apart here.

How the values were obtained:
[1] = test system: Green Peach Aphid (Myzus persicae) (MYZUPE); experiment: Bioassays on Green Peach Aphid (GPA), foliar spray on cabbage seedlings; assay type: in vivo; details: 72 h, read-out: MYZUPE rating (% Control of Mortality)
Experimental: Several molecules disclosed herein were tested against GPA using procedures described below.
Cabbage seedling grown in 3-in pots, with 2-3 small (3-5 cm) true leaves, were used as test substrate. The seedlings were infested with […] (wingless adult and nymph stages) one day prior to chemical application. Four pots with individual seedlings were used for each treatment. Test compounds (2 mg) were dissolved in 2 mL of acetone/MeOH (1:1) solvent, forming stock solutions of 1000 ppm test compound. The stock solutions were diluted 5× with 0.025% Tween 20 in water to obtain the solution at 200 ppm test compound. A hand-held aspirator-type sprayer was used for spraying a solution to both sides of the cabbage leaves until runoff. Reference plants (solvent check) were sprayed with the diluent only containing 20% by volume acetone/MeOH (1:1) solvent. Treated plants were held in a holding room for three days at approximately 25° C. and ambient relative humidity (RH) prior to grading. Evaluation was conducted by counting the number of live aphids per plant under a microscope. Percent Control was measured by using Abbott's correction formula (W. S. Abbott, “A Method of Computing the Effectiveness of an Insecticide” J. Econ. Entomol 18 (1925), pp. 265-267) as follows. Corrected % Control=100*(X−Y)/X • where • X=No. of live aphids on solvent check plants and • Y=No. of live aphids on treated plants
The results are indicated in the table entitled “Table 1: GPA (MYZUPE) and sweetpotato whitefly-crawler (BEMITA) Rating Table”.

[2] = test system: Sweetpotato Whitefly Crawler (Bemisia tabaci) (BEMITA); experiment: Bioassays on Sweetpotato Whitefly Crawler, foliar spray on cotton plants; assay type: in vivo; details: read-out: BEMITA rating (% Control of Mortality)
Experimental: Cotton plants grown in 3-inch pots, with 1 small (3-5 cm) true leaf, were used at test substrate. The plants were placed in a room with whitely adults. Adults were allowed to deposit eggs for 2-3 days. After a 2-3 day egg-laying period, plants were taken from the adult whitefly room. Adults were blown off leaves using a hand-held Devilbliss sprayer (23 psi). Plants with egg infestation (100-300 eggs per plant) were placed in a holding room for 5-6 days at 82° F. and 50% RH for egg hatch and crawler stage to develop. Four cotton plants were used for each treatment. Compounds (2 mg) were dissolved in 1 mL of acetone solvent, forming stock solutions of 2000 ppm. The stock solutions were diluted 10× with 0.025% Tween 20 in water to obtain a test solution at 200 ppm. A hand-held Devilbliss sprayer was used for spraying a solution to both sides of cotton leaf until runoff. Reference plants (solvent check) were sprayed with the diluent only. Treated plants were held in a holding room for 8-9 days at approximately 82° F. and 50% RH prior to grading. Evaluation was conducted by counting the number of live nymphs per plant under a microscope.

CCN(C(=O)CCSCCC(F)(F)F)c1c[nH]nc1Cl [Compound 4.7, N-(3-chloro-1H-pyrazol-4-yl)-N-ethyl-3-((3,3,3-trifluoropropyl)thio)propanamide]
mortality at 200 ppm ([1]; 200 ppm spray on cabbage seedlings, graded after three days, Abbott's correction, live aphids): < 0%

CCNc1c[nH]nc1Cl [Compound 7a, 3-Chloro-N-ethyl-1H-pyrazol-4-amine]
mortality at 200 ppm [1]: < 0%

Nc1c[nH]nc1Cl [Compound 1a, 3-chloro-1H-pyrazol-4-amine hydrochloride]
mortality at 200 ppm [1]: 0 to 80%
mortality at 200 ppm [2]: 0 to 80%
